US6291247A, “Methods of screening for factors that disrupt neurotrophin conformation and reduce neurotrophin biological activity” (priority 1996, dated 2001)

Target: T1, NGF (Mus musculus, UniProt P01139)
T1 construct: homodimer
Assay: Circular dichroism of NGF
Details: 100 μM, 22° C.
Procedure: For conformation and dimer integrity studies, 0.1 nM ^125 I-NGF was incubated in the presence or absence of Zn^2+ in HKR buffer for 2 hours at 4° C. in a total volume of 0.1 ml. For crosslinking NGF […], 0.4 mM BS^3 was added to the mixture and incubated for 30 minutes at 25° C. The reaction was quenched with reducing SDS PAGE sample buffer, electrophoresed using a linear 15% acrylamide gel and autoradiographed. To assess the dimeric nature of NGF in the presence of Zn^2+, ^125 I-NGF was electrophoresed in a non-reducing SDS PAGE system as described, autoradiographed, and the labelled proteins excised from the gels and counted. For CD studies, NGF (50 μg/ml) was dissolved in 50 mM Tris-HCl buffer and spectra recorded using a computer controlled Jasco J-600 spectropolarimeter. Samples were acquired in the absence or presence of Zn^2+ (100 μM) at 22° C. in a 2 mm quartz cell averaged over eight scans. Modification of His residues by DEPC was carried out as previously described, where the molar excess of DEPC added and the extent of reaction was determined by evaluating the loss of binding activity of the modified product.

T1 sequence (P01139 122-239): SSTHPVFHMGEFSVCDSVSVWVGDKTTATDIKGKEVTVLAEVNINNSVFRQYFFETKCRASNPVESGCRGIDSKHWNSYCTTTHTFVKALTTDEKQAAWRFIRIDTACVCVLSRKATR

## [Zn+2] [Zn^2+]
  Mean molar ellipticity of NGF by CD: significant decrease
